Where two headings read alike, the source gives them in different places.
Columns and labels:
[1] = target: T1, human 11β-HSD1 (Homo sapiens, UniProt P28845); experiment: Enzyme inhibitory activity, human 11β-HSD1 (lysate of stably expressing HEK293 cells, cortisol by competitive ELISA); assay type: biochemical; conditions: human 11β-HSD1, cell lysate, 37° C. for 1 hour, read-out: h HSD1 in vitro assay (IC50 uM)
T1 construct: The obtained PCR products of about 0.9 kbp, 1.2 kbp, and 0.9 kbp were subcloned into an expression vector pcDNA3.1+/Zeo; expressed in transfected cells
Experimental: (§1) 1. Human 11β-HSD1-, Human 11β-HSD2- and Mouse 11β-HSD1-Gene Clonings and Establishment of Stably Expressing Cells
(§2) Human 11β-HSD1-, human 11β-HSD2-, and mouse 11β-HSD1-gene clonings were conducted using as a template a reverse transcription product of human-liver RNA, human-kidney RNA (CELL APPLICATIONS), and mouse-kidney RNA respectively, by means of PCR cloning with reference to nucleotide sequences of Genbank Accession Nos. NM_005525, NM_000196, and NM_008288. The obtained PCR products of about 0.9 kbp, 1.2 kbp, and 0.9 kbp were subcloned into an expression vector pcDNA3.1+/Zeo (Invitrogen).
(§3) Human 11β-HSD1- and human 11β-HSD2-expressing vectors were transfected into human kidney-derived cell line, HEK293 cells, using a transfection reagent, jet PEI (Funakoshi). Mouse 11β-HSD1 was transfected to Chinese hamster ovary-derived cell line, CHO-K1 cells. Selection was conducted with 200-400 μg/mL of zeocine (Invitrogen) to provide stably expressing-cell clones. The stably expressing cells were suspended in buffer solution A (20 mmol/L Tris-HCl, pH 7.4, 250 mmol/L sucrose, 1 mmol/L EGTA, 1 mmol/L EDTA, 1 mmol/L MgCl2), sonicated, and then stored at −80° C.
(§4) 2. Assay of Enzyme Inhibitory Activity
(§5) An enzymatic reaction was conducted using a polystyrene 96-well plate. Each well was added with 1 μL of a test agent dissolved in DMSO and then diluted (0.003 to 3 mmol/L), and further added with 10 μL of cell lysate diluted to a concentration of 0.1 mg/mL to 0.4 mg/mL. Next, 90 μL of buffer solution A containing substrate (100 nmol/L cortisone or cortisol) and coenzyme (400 μmol/L NADPH or NAD+) was added and the mixture was incubated at 37° C. for 1 hour. The enzymatic reaction was stopped by treating at 95° C. for 3 minutes. Cortisol that was present in the reaction solution was determined by a competitive ELISA shown below.
(§6) Anti-rabbit IgG antibody (Chemi-con) diluted to 2 μg/mL with carbonate buffer solution (pH 9.6) was added in 100 μL each to a 96-well immuno plate (Nunc) and immobilized by an incubation at 4° C. overnight. 50 μL of enzymatic reaction solution was put onto the plates, and further, anti-cortisol antibody (Cosmo Bio) and HRP-labeled cortisol (Cosmo Bio), diluted with buffer solution B (25 mmol/L Tris-HCl pH 7.4, 137 mmol/L NaCl, 2.68 mmol/L KCl), were added in 50 μL respectively and incubated at 4° C. overnight. After washed three times with buffer solution B containing 0.05% Tween 20, the plates were allowed to develop color by adding 100 μL of color reagent, TMB (Moss). The color reaction was stopped by 25 μL of 1 mol/L sulfuric acid and the absorbance was determined at 450 nm with a microplate reader (Molecular Device, VersaMax).
(§7) The values of human 11β-HSD1, human 11β-HSD2, and mouse 11β-HSD1 activities were subtracted from 100, and the resultant values were regarded as the respective 11β-HSD inhibition rates of example compounds. […] The comparison of human 11β-HSD1 and human 11β-HSD2 inhibiting activities is shown in Table 1, and the comparison of human 11β-HSD1 and mouse 11β-HSD1 inhibiting activities is shown in Table 2.

[2] = target: T2, mouse 11β-HSD1 (Mus musculus, UniProt P50172); experiment: Enzyme inhibitory activity, mouse 11β-HSD1 (lysate of stably expressing CHO-K1 cells, cortisol by competitive ELISA); assay type: biochemical; conditions: Table 2; mouse 11β-HSD1, cell lysate, 37° C. for 1 hour; read-out: m HSD1 in vitro assay (IC50 uM)
T2 construct: The obtained PCR products of about 0.9 kbp, 1.2 kbp, and 0.9 kbp were subcloned into an expression vector pcDNA3.1+/Zeo; expressed in transfected cells
Experimental: as §1, §2, §3, §4, §5, §6, §7

T1 sequence (P28845 whole entry): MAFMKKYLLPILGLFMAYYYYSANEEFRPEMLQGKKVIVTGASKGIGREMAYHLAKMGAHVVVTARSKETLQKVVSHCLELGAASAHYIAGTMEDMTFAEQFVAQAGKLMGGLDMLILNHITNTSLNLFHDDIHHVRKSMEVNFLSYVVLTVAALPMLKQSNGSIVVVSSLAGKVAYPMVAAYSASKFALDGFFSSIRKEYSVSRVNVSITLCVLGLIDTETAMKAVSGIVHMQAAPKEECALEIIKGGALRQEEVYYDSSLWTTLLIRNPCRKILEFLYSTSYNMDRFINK
T2 sequence (P50172 whole entry): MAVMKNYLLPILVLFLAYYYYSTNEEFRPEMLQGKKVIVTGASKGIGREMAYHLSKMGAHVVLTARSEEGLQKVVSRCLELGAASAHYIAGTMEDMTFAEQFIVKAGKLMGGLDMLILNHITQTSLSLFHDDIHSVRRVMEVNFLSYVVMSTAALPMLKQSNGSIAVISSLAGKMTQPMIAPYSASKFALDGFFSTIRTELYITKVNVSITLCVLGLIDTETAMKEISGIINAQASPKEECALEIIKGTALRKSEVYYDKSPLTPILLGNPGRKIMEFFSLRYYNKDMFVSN

Row | IC50 ([1]; Table 2) [µM] | IC50 [2] [µM] | IC50 ([1]; Table 1) [µM] | Structure (SMILES)
1 | 0.44 | 0.073 | – | CC1(C)C(=O)N(C2C3CC4CC(C3)CC2C4)N1Cc1cccc(Cl)c1 (centres unmarked) [Example 28, 1-(3-chlorobenzyl)-4,4-dimethyl-2-(adamantan-2-yl)-1,2-diazetidin-3-one]
2 | 0.6 | 0.37 | – | CC1(C)C(=O)N(C2C3CC4CC(C3)CC2C4)N1Cc1cccc([N+](=O)[O-])c1 (centres unmarked) [Example 29, 4,4-dimethyl-1-(3-nitrobenzyl)-2-(adamantan-2-yl)-1,2-diazetidin-3-one]
3 | 0.047 | 0.1 | – | Cc1ccccc1CN1N(C2C3CC4CC(C3)CC2C4)C(=O)C1(C)C (centres unmarked) [Example 30, 4,4-dimethyl-1-(2-methylbenzyl)-2-(adamantan-2-yl)-1,2-diazetidin-3-one]
4 | 0.96 | 0.3 | – | CC1(C)C(=O)N(C2C3CC4CC(C3)CC2C4)N1Cc1ccc([N+](=O)[O-])cc1 (centres unmarked) [Example 31, 4,4-dimethyl-1-(4-nitrobenzyl)-2-(adamantan-2-yl)-1,2-diazetidin-3-one]
5 | 0.25 | 0.054 | – | Cc1cccc(CN2N(C3C4CC5CC(C4)CC3C5)C(=O)C2(C)C)c1 (centres unmarked) [Example 32, 4,4-dimethyl-1-(3-methylbenzyl)-2-(adamantan-2-yl)-1,2-diazetidin-3-one]
6 | 0.38 | 0.086 | – | CC1(C)C(=O)N(C2C3CC4CC(C3)CC2C4)N1Cc1cccc(Br)c1 (centres unmarked) [Example 33, 1-(3-bromobenzyl)-4,4-dimethyl-2-(adamantan-2-yl)-1,2-diazetidin-3-one]
7 | 0.44 | 0.15 | – | CC1(C)C(=O)N(C2C3CC4CC(C3)CC2C4)N1Cc1cccc(I)c1 (centres unmarked) [Example 35, 1-(3-iodobenzyl)-4,4-dimethyl-2-(adamantan-2-yl)-1,2-diazetidin-3-one]
8 | 0.69 | 0.21 | – | CC1(C)C(=O)N(C2C3CC4CC(C3)CC2C4)N1Cc1ccc(C(F)(F)F)cc1 (centres unmarked) [Example 36, 4,4-dimethyl-2-(adamantan-2-yl)-1-[4-(trifluoromethyl)benzyl]-1,2-diazetidin-3-one]
9 | 0.26 | 0.1 | – | CC1(C)C(=O)N(C2C3CC4CC(C3)CC2C4)N1Cc1ccccc1F (centres unmarked) [Example 38, 1-(2-fluorobenzyl)-4,4-dimethyl-2-(adamantan-2-yl)-1,2-diazetidin-3-one]
10 | – | 0.24 | 0.025 | CC1(C)C(=O)N(C2C3CC4CC(C3)CC2C4)N1Cc1ccccc1C(F)(F)F (centres unmarked) [Example 42, 4,4-dimethyl-2-(adamantan-2-yl)-1-[2-(trifluoromethyl)benzyl]-1,2-diazetidin-3-one]
11 | 0.072 | 0.074 | – | CC1(C)C(=O)N(C2C3CC4CC(C3)CC2C4)N1Cc1cccc(Cl)c1Cl (centres unmarked) [Example 43, 1-(2,3-dichlorobenzyl)-4,4-dimethyl-2-(adamantan-2-yl)-1,2-diazetidin-3-one]
12 | 0.044 | 0.073 | – | CC1(C)C(=O)N(C2C3CC4CC(C3)CC2C4)N1Cc1cc(Cl)ccc1Cl (centres unmarked) [Example 44, 1-(2,5-dichlorobenzyl)-4,4-dimethyl-2-(adamantan-2-yl)-1,2-diazetidin-3-one]
13 | 0.079 | 0.14 | – | CC1(C)C(=O)N(C2C3CC4CC(C3)CC2C4)N1Cc1ccc(F)cc1Cl (centres unmarked) [Example 45, 1-(2-chloro-4-fluorobenzyl)-4,4-dimethyl-2-(adamantan-2-yl)-1,2-diazetidin-3-one]
14 | 0.23 | 0.45 | – | CC1(C)C(=O)N(C2C3CC4CC(C3)CC2C4)N1Cc1c(F)cccc1Cl (centres unmarked) [Example 46, 1-(2-chloro-6-fluorobenzyl)-4,4-dimethyl-2-(adamantan-2-yl)-1,2-diazetidin-3-one]
15 | 0.2 | 0.58 | – | CC1(C)C(=O)N(C2C3CC4CC(C3)CC2C4)N1Cc1ccccc1[N+](=O)[O-] (centres unmarked) [Example 47, 4,4-dimethyl-1-(2-nitrobenzyl)-2-(adamantan-2-yl)-1,2-diazetidin-3-one]
16 | – | 0.31 | 0.8 | CC1(C)C(=O)N(C2C3CC4CC(C3)CC2C4)N1Cc1ccccc1-c1ccccc1 (centres unmarked) [Example 49, 1-(biphenyl-2-ylmethyl)-4,4-dimethyl-2-(adamantan-2-yl)-1,2-diazetidin-3-one]
17 | 0.082 | 0.58 | – | COc1ccccc1CN1N(C2C3CC4CC(C3)CC2C4)C(=O)C1(C)C (centres unmarked) [Example 51, 1-(2-methoxybenzyl)-4,4-dimethyl-2-(adamantan-2-yl)-1,2-diazetidin-3-one]
18 | 0.35 | 0.06 | – | CC1(C)C(=O)N(C2C3CC4CC(C3)CC2C4)N1Cc1ccc(Br)cc1 (centres unmarked) [Example 53, 1-(4-bromobenzyl)-4,4-dimethyl-2-(adamantan-2-yl)-1,2-diazetidin-3-one]
19 | 0.3 | 0.036 | – | COc1cccc(CN2N(C3C4CC5CC(C4)CC3C5)C(=O)C2(C)C)c1 (centres unmarked) [Example 54, 1-(3-methoxybenzyl)-4,4-dimethyl-2-(adamantan-2-yl)-1,2-diazetidin-3-one]
20 | 0.067 | 0.069 | – | Cc1ccc(CN2N(C3C4CC5CC(C4)CC3C5)C(=O)C2(C)C)c(C)c1 (centres unmarked) [Example 55, 1-(2,4-dimethylbenzyl)-4,4-dimethyl-2-(adamantan-2-yl)-1,2-diazetidin-3-one]
21 | 0.054 | 0.052 | – | Cc1ccc(C)c(CN2N(C3C4CC5CC(C4)CC3C5)C(=O)C2(C)C)c1 (centres unmarked) [Example 56, 1-(2,5-dimethylbenzyl)-4,4-dimethyl-2-(adamantan-2-yl)-1,2-diazetidin-3-one]
22 | 0.026 | 0.061 | – | Cc1c(F)cccc1CN1N(C2C3CC4CC(C3)CC2C4)C(=O)C1(C)C (centres unmarked) [Example 58, 1-(3-fluoro-2-methylbenzyl)-4,4-dimethyl-2-(adamantan-2-yl)-1,2-diazetidin-3-one]
23 | 0.25 | 0.064 | – | CC1(C)C(=O)N(C2C3CC4CC(C3)CC2C4)N1Cc1cccc(Cl)c1F (centres unmarked) [Example 59, 1-(3-chloro-2-fluorobenzyl)-4,4-dimethyl-2-(adamantan-2-yl)-1,2-diazetidin-3-one]
24 | 0.23 | 0.3 | – | CC1(C)C(=O)N(C2C3CC4CC(C3)CC2C4)N1Cc1cccc2c1OCO2 (centres unmarked) [Example 61, 1-(1,3-benzodioxol-4-ylmethyl)-4,4-dimethyl-2-(adamantan-2-yl)-1,2-diazetidin-3-one]
25 | 0.015 | 0.41 | – | CC1(C)C(=O)N(C2C3CC4CC(C3)CC2C4)N1Cc1cccc2ccccc12 (centres unmarked) [Example 63, 4,4-dimethyl-1-(naphthalen-1-ylmethyl)-2-(adamantan-2-yl)-1,2-diazetidin-3-one]
26 | 0.6 | 0.041 | – | CC1(C)C(=O)N(C2C3CC4CC(C3)CC2C4)N1Cc1ccc2ccccc2c1 (centres unmarked) [Example 64, 4,4-dimethyl-1-(naphthalen-2-ylmethyl)-2-(adamantan-2-yl)-1,2-diazetidin-3-one]
27 | 0.5 | 0.47 | – | CC1(C)C(=O)N([C@H]2C3CC4CC2C[C@](O)(C4)C3)N1Cc1ccccc1Cl [Example 65, trans-1-(2-chlorobenzyl)-2-(5-hydroxyadamantan-2-yl)-4,4-dimethyl-1,2-diazetidin-3-one]
28 | – | 0.57 | 0.09 | CC1(C)C(=O)N([C@H]2C3CC4CC2C[C@](O)(C4)C3)N1Cc1ccccc1C(F)(F)F [Example 66, trans-2-(5-hydroxyadamantan-2-yl)-4,4-dimethyl-1-[2-(trifluoromethyl)benzyl]-1,2-diazetidin-3-one]

Source: patent US8252781B2, “1,2-diazetidin-3-one derivatives and drugs containing same” (Kowa Company, Ltd., priority 2008, dated 2012)
